System: PDC KRAS tumor spheroids with HUVEC/MSC, viability
Assay: Anticancer human tumor 349418-098-R-PDC patient-derived lung adenocarcinoma cell line growth inhibition [KRAS2]
Settings: for viability, T/C: stronger effect = lower value
Procedure, shortened: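 KRAS-mutant tumor cells were grown as spheroids with HUVEC endothelial cells and human MSCs as stroma. Targeted agents were tested alone and with KRAS pathway inhibitors. Doses started at or near clinical Cmax, or 10 microM, descending half-log.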

[1] = curve of first compound, second compound 0.1 µM
[2] = curve of first compound, second compound 0.316 µM
[3] = curve of first compound, second compound 1 µM
[4] = curve of first compound, second compound 3.16 µM
[5] = curve of first compound, second compound 10 µM
[6] = second compound 0.1 µM, first compound 0.0316 µM
[7] = second compound 0.1 µM, first compound 0.1 µM
[8] = second compound 0.1 µM, first compound 0.316 µM
[9] = second compound 0.1 µM, first compound 1 µM
[10] = second compound 0.1 µM, first compound 3.16 µM
[11] = second compound 0.316 µM, first compound 0.0316 µM
[12] = second compound 0.316 µM, first compound 0.1 µM
[13] = second compound 0.316 µM, first compound 0.316 µM
[14] = second compound 0.316 µM, first compound 1 µM
[15] = second compound 0.316 µM, first compound 3.16 µM
[16] = second compound 1 µM, first compound 0.0316 µM
[17] = second compound 1 µM, first compound 0.1 µM
[18] = second compound 1 µM, first compound 0.316 µM
[19] = second compound 1 µM, first compound 1 µM
[20] = second compound 1 µM, first compound 3.16 µM
[21] = second compound 3.16 µM, first compound 0.0316 µM
[22] = second compound 3.16 µM, first compound 0.1 µM
[23] = second compound 3.16 µM, first compound 0.316 µM
[24] = second compound 3.16 µM, first compound 1 µM
[25] = second compound 3.16 µM, first compound 3.16 µM
[26] = second compound 10 µM, first compound 0.0316 µM
[27] = second compound 10 µM, first compound 0.1 µM
[28] = second compound 10 µM, first compound 0.316 µM
[29] = second compound 10 µM, first compound 1 µM
[30] = second compound 10 µM, first compound 3.16 µM
[31] = second compound 0.1 µM, first compound 0.00316 µM
[32] = second compound 0.1 µM, first compound 0.01 µM
[33] = second compound 0.316 µM, first compound 0.00316 µM
[34] = second compound 0.316 µM, first compound 0.01 µM
[35] = second compound 1 µM, first compound 0.00316 µM
[36] = second compound 1 µM, first compound 0.01 µM
[37] = second compound 3.16 µM, first compound 0.00316 µM
[38] = second compound 3.16 µM, first compound 0.01 µM
[39] = second compound 10 µM, first compound 0.00316 µM
[40] = second compound 10 µM, first compound 0.01 µM
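Further: spheroids exposed to compounds for seven days before readout.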

| SMILES | IC50 [1] [nM] | IC50 [2] [nM] | IC50 [3] [nM] | IC50 [4] [nM] | IC50 [5] [nM] | viability, T/C [6] [%] | viability, T/C [7] [%] | viability, T/C [8] [%] | viability, T/C [9] [%] | viability, T/C [11] [%] | viability, T/C [12] [%] | viability, T/C [13] [%] | viability, T/C [14] [%] | viability, T/C [16] [%] | viability, T/C [17] [%] | viability, T/C [18] [%] | viability, T/C [19] [%] | viability, T/C [21] [%] | viability, T/C [22] [%] | viability, T/C [23] [%] | further results |
| --- | --- | --- | --- | --- | --- | --- | --- | --- | --- | --- | --- | --- | --- | --- | --- | --- | --- | --- | --- | --- | --- |
| COc1cc(Nc2ncc3c(n2)-c2ccc(Cl)cc2C(c2c(F)cccc2OC)=NC3)ccc1C(=O)O + CNCc1ccccc1-c1csc(C(C)Nc2nc(C)nc3cc(OC)c(OC)cc23)c1 | < 31.6 | < 31.6 | < 31.6 | < 31.6 | < 31.6 | 51.9 | 26.1 | 38.8 | 36.7 | 51.1 | 26.1 | 35.7 | 32.2 | 40.2 | 23.6 | 32.4 | 26.8 | 0.15 | 0.11 | 0.14 | viability, T/C [10]: 32.7%; viability, T/C (second compound 0.1 µM, first compound 10 µM): 24.8%; viability, T/C [15]: 32.8%; viability, T/C (second compound 0.316 µM, first compound 10 µM): 28.8%; viability, T/C [20]: 25.9%; viability, T/C (second compound 1 µM, first compound 10 µM): 26.7%; viability, T/C [24]: 0.14%; viability, T/C [25]: 0.08%; viability, T/C (second compound 3.16 µM, first compound 10 µM): 0.29%; viability, T/C [26]: 0.08%; viability, T/C [27]: 0.07%; viability, T/C [28]: 0.08%; viability, T/C [29]: 0.08%; viability, T/C [30]: 0.08%; viability, T/C (second compound 10 µM, first compound 10 µM): 0.13% |
| COc1cc2nccc(Oc3ccc(NC(=O)C4(C(=O)Nc5ccc(F)cc5)CC4)cc3)c2cc1OC |  |  |  |  |  |  |  |  |  |  |  |  |  |  |  |  |  |  |  |  | viability, T/C (compound 0.0316 µM): 102% [middle of 5 runs]; viability, T/C (compound 0.1 µM): 98.8% [middle of 5 runs]; viability, T/C (compound 0.316 µM): 94.4% [middle of 5 runs]; viability, T/C (compound 3.16 µM): 14.4% [middle of 5 runs]; IC50 (curve of compound): 1.76 µM [middle of 5 runs] |
| CCN1CCN(Cc2ccc(Nc3ncc(F)c(-c4cc(F)c5nc(C)n(C(C)C)c5c4)n3)nc2)CC1 + COc1cc2nc(C)nc(NC(C)c3cc(N)cc(C(F)(F)F)c3)c2cc1OC1CCOC1 | < 3.16 | 5.01 | 5.63 | < 3.16 | < 3.16 | 25.5 | 20.2 | 14.2 | 5.42 | 16.6 | 16.1 | 13.6 | 4.29 | 14.2 | 13.4 | 10.5 | 4.38 | 14.5 | 11.7 | 8.46 | viability, T/C [31]: 49.7%; viability, T/C [32]: 25.8%; viability, T/C [33]: 61.8%; viability, T/C [34]: 33%; viability, T/C [35]: 69.3%; viability, T/C [36]: 31.1%; viability, T/C [37]: 40.8%; viability, T/C [38]: 25%; viability, T/C [24]: 1.57%; viability, T/C [39]: 11.7%; viability, T/C [40]: 8.02%; viability, T/C [26]: 4.11%; viability, T/C [27]: 2.43%; viability, T/C [28]: 0.61%; viability, T/C [29]: 0.15% |
| CCN1CCN(Cc2ccc(Nc3ncc(F)c(-c4cc(F)c5nc(C)n(C(C)C)c5c4)n3)nc2)CC1 + CNCc1ccccc1-c1csc(C(C)Nc2nc(C)nc3cc(OC)c(OC)cc23)c1 | 7.79 | 3.7 | < 3.16 | < 3.16 | < 3.16 | 21.4 | 14.4 | 11.6 | 3.5 | 15.1 | 16.1 | 10.9 | 2.1 | 4.86 | 5.28 | 2.85 | 2.48 | 4.57 | 0.17 | 0.02 | viability, T/C [31]: 71%; viability, T/C [32]: 45.5%; viability, T/C [33]: 53.5%; viability, T/C [34]: 31.7%; viability, T/C [35]: 34.4%; viability, T/C [36]: 11.7%; viability, T/C [37]: 0.3%; viability, T/C [38]: 0.05%; viability, T/C [24]: 0.07%; viability, T/C [39]: 0.18%; viability, T/C [40]: 0.06%; viability, T/C [26]: 0.06%; viability, T/C [27]: 0.1%; viability, T/C [28]: 0.07%; viability, T/C [29]: 0.1% |
| CC1COCCN1c1cc(-c2ccnn2C)c2ccnc(-c3ccn[nH]3)c2n1 (stereo not drawn) + CNCc1ccccc1-c1csc(C(C)Nc2nc(C)nc3cc(OC)c(OC)cc23)c1 | 25 | 29.9 | 18.5 | < 10 | < 10 | 33.4 | 10.6 | 7.11 | 5.04 | 47.1 | 11.1 | 5.41 | 4.13 | 13.4 | 3.84 | 4.41 | 3.23 | 0.21 | 0.12 | 0.03 | viability, T/C [32]: 114%; viability, T/C [10]: 3.83%; viability, T/C [34]: 107%; viability, T/C [15]: 3.71%; viability, T/C [36]: 92.1%; viability, T/C [20]: 2.84%; viability, T/C [38]: 0.09%; viability, T/C [24]: 0.04%; viability, T/C [25]: 0.13%; viability, T/C [40]: 0.08%; viability, T/C [26]: 0.07%; viability, T/C [27]: 0.07%; viability, T/C [28]: 0.07%; viability, T/C [29]: 0.08%; viability, T/C [30]: 0.13% |
| CNCc1ccccc1-c1csc(C(C)Nc2nc(C)nc3cc(OC)c(OC)cc23)c1 (stereo not drawn) |  |  |  |  |  |  |  |  |  |  |  |  |  |  |  |  |  |  |  |  | viability, T/C (compound 10 µM): 0.1% [middle of 12 runs]; IC50 (compound alone, run of 07/19/2021): 1.6 µM [middle of 5 runs]; IC50 (compound alone, run of 07/26/2021): 1.09 µM [middle of 6 runs] |
